In PubChem BioAssay (NCI):
“And” between values parts separate entries of the source, which are not always exact repeats. Equal values may be shown once.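 How tested: cells in 96-well plates exposed to compound for 48 hours at five concentrations. At the GI50, growth is halved. Definition used: TGI = concentration required for complete inhibition of growth.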

Columns and labels:
Assay in all cases: inhibition of tumour cell growth, NCI panel, 48 h
[1] = test system: EKVX NSCLC
[2] = test system: MOLT-4 leukemia
[3] = test system: TK-10 renal
[4] = test system: SN12C renal
[5] = test system: HL-60(TB) leukemia
[6] = test system: SNB-19 CNS
[7] = test system: MALME-3M melanoma
[8] = test system: HT29 colon
[9] = test system: SF-295 CNS
[10] = test system: RXF 393 renal

| SMILES | TGI [1] | TGI [2] | TGI [3] | TGI [4] | TGI [5] [µM] | TGI [6] | TGI [7] [µM] | TGI [8] | TGI [9] [µM] | TGI [10] | GI50 [1] | GI50 [2] | GI50 [10] | GI50 [6] | GI50 [8] |
| --- | --- | --- | --- | --- | --- | --- | --- | --- | --- | --- | --- | --- | --- | --- | --- |
| S=C(NCc1ccccc1)N/N=C/c1ccccn1 | > 100 µM | 16.6 µM | > 100 µM | > 100 µM | 0.183 | > 100 µM | > 100 | > 100 µM | – | – | – | – | – | – | – |
| O=C1c2ccccc2-c2[nH]c3cn[nH]c(=O)c3c21 | > 100 µM | > 100 µM | > 100 µM | > 100 µM | > 100 | > 100 µM | > 100 | > 100 µM | > 100 | – | – | – | – | – | – |
| O=C1c2ccccc2C(=O)N1c1nc(-c2ccc(Cl)cc2)cc(N2N=C(c3ccc(Br)cc3)CC2c2ccccc2)n1 (stereo not given) | 5.99 µM | > 23.7 µM | > 49 µM | 17.1 µM | > 100 | > 33.8 µM | > 60.6 | 9.66 µM | 3.65 | – | – | – | – | – | – |
| O=[N+]([O-])c1ccc(C(Nc2ccccc2)c2ccc3cccnc3c2O)cc1 (stereo not given) | > 54.6 µM | – | 68.8 µM | > 56.2 µM | 13.4 | > 100 µM | > 65.2 | > 100 µM | > 100 | 24.6 µM | – | – | – | – | – |
| COC(=O)c1c(-c2ccc(Cl)cc2)cc2c3ccccc3n(C)c2c1C(=O)OC | > 100 µM | > 100 µM | > 100 µM | > 100 µM | > 100 | > 100 µM | > 100 | > 100 µM | > 100 | – | – | – | – | – | – |
| Cc1cc2cc3c(cc2c(-c2ccc(N)cc2)n1)OCO3 | > 100 µM | 39.6 µM | > 100 µM | > 100 µM | 47.3 | > 100 µM | > 100 | 62.2 µM | > 100 | – | – | – | – | – | – |
| CSc1nc(NC(C)C)c2c(n1)Sc1nc3ccccc3n1C2O (stereo not given) | > 100 µM | 14.1 µM | > 100 µM | > 100 µM | – | – | 49.6 | > 100 µM | > 100 | 30.4 µM | – | – | – | – | – |
| Cc1nc(-c2cc3cc(Cl)ccc3oc2=O)cc2c1c(=O)oc1ccc(Cl)cc12 | > 100 µM | > 100 µM | > 100 µM | > 100 µM | > 100 | > 100 µM | – | > 100 µM | > 100 | > 100 µM | – | – | – | – | – |
| O=C1C=CC(=O)c2c(O)c(N3CCN(CCOCCO)CC3)c(Cl)c(O)c21 | 4.4 µM [middle of 4 runs] | 0.837 µM and 0.175 µM | 1.56 µM [middle of 4 runs] | 2.07 µM [middle of 4 runs] | – | 26.5 µM and 18.4 µM and 26.1 µM | – | 1.66 µM and 1.61 µM and 1.07 µM | – | 0.422 µM and 1.1 µM and 2.96 µM | 1.9 µM [middle of 4 runs] | 0.097 µM and 0.0331 µM | 0.192 µM and 0.344 µM and 1.35 µM | 13.4 µM [middle of 4 runs] | 0.42 µM and 0.592 µM and 0.288 µM |
| COC(=O)CCCC(=O)NC1=C(NCc2ccccc2)C(=O)c2ccccc2C1=O | > 100 µM | > 100 µM | > 100 µM | > 100 µM | 77.3 | > 100 µM | 37.7 | – | – | – | – | – | – | – | – |
| CS(=O)(=O)NC12CCC(c3ccccc31)c1ccccc12 | > 100 µM | > 100 µM | > 100 µM | > 100 µM | > 100 | > 100 µM | > 100 | > 100 µM | – | – | – | – | – | – | – |
| CSc1ccc(/C=C2\N=C(c3ccccc3)N(/N=C/c3cc4cc(C)ccc4nc3Cl)C2=O)cc1 | > 100 µM | 37.2 µM | 33.5 µM | 35.6 µM | 47.5 | 43.1 µM | – | 62.1 µM | 44.7 | – | – | – | – | – | – |
| CC(=O)/C(=C\c1ccc(Cl)c(Cl)c1)C(=O)C(C)CN(C)C (stereo not given) | 27.8 µM | 6.6 µM | 5.82 µM | 20.6 µM | 5.36 | 5.56 µM | 21.9 | 24.1 µM | 16.5 | – | – | – | – | – | – |
| NC(=O)CO/N=C1/C(c2c(O)[nH]c3ccccc23)=Nc2ccccc21 | > 100 µM | > 100 µM | > 100 µM | > 100 µM | > 100 | > 100 µM | > 100 | > 100 µM | > 100 | – | – | – | – | – | – |
| C#CCC1(C(=O)OCC)C(=O)c2ccccc2N(C)C1=O (stereo not given) | > 100 µM | > 100 µM | > 100 µM | > 100 µM | > 100 | > 100 µM | > 100 | > 100 µM | > 100 | – | – | – | – | – | – |
| CO[C@H]1C[C@H](O[C@H]2CC[C@]3(C=O)[C@H]4CC[C@]5(C)[C@@H](C6=CC(=O)OC6)CC[C@]5(O)[C@@H]4CC[C@]3(O)C2)O[C@H](C)[C@H]1O | 0.79 µM | 2.89 µM | 0.758 µM | 0.201 µM | 2.51 | 4.8 µM | 2.86 | – | 0.671 | 0.189 µM | – | – | – | – | – |
| CCOC(=O)C1(C(F)(F)F)N=C(CC)OC(N2CCOCC2)=N1 (stereo not given) | > 100 µM | > 100 µM | > 100 µM | > 100 µM | > 100 | > 100 µM | – | > 100 µM | > 100 | > 100 µM | – | – | – | – | – |
